According to patent US20110081315A1, “NOVEL MACROCYCLIC INHIBITORS OF HEPATITIS C VIRUS REPLICATION” (INTERMUNE, INC., priority 2009, published 2011):

How the values were obtained:
[1] = system: hepatitis C replicon; experiment: hepatitis C replicon EC50 assay; assay type: cell-based; conditions: Hepatitis C virus; hepatitis C replicon; read-out: EC50
How it was run: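 Inhibitory concentrations against the NS3/NS4 complex are determined at 23° C. in pH 7.5 buffer (50 mM Tris-HCl) containing 25 μM NS4A peptide, 0.6 mM lauryldimethylamine oxide, 10 mM dithiothreitol and 15% glycerol. EC50 values derive from the hepatitis C replicon assay.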

[2] = target: NS3/NS4 complexes (Hepatitis C virus genotype 1a, UniProt P27958); experiment: NS3/NS4 inhibition assay (IC50); assay type: biochemical; conditions: NS3/NS4 activity; 23° C., 25 μM NS4A peptide
Chain of NS3/NS4 complexes (P27958 1027-1657, one chain of several): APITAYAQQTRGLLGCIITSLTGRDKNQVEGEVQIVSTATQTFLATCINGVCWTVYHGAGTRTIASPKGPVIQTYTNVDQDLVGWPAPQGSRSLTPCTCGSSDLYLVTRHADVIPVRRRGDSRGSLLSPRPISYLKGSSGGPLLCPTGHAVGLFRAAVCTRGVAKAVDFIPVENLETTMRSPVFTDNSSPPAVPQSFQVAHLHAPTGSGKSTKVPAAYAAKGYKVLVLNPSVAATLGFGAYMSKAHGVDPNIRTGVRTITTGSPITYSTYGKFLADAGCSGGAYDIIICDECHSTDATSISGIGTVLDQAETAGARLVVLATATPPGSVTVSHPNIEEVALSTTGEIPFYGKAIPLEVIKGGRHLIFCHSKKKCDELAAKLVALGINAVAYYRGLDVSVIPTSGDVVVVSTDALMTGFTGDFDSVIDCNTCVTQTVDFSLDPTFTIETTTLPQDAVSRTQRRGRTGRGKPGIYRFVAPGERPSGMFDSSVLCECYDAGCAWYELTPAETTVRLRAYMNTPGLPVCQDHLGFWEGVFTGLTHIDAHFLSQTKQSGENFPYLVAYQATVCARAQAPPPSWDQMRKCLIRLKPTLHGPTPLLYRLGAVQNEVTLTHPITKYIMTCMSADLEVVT
How it was run: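 NS3/NS4 protease complexes were formed and compound inhibitory concentrations (IC50) measured at ambient temperature (23° C.) in 50 mM Tris-HCl, pH 7.5, with 15% glycerol, 0.6 mM LDAO, 25 μM NS4A peptide and 10 mM DTT. Replicon EC50 values come from a standard HCV replicon cell assay.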

Compound	EC50 [1] [nM]	IC50 [2] [nM]
CC(C)c1ccc2c(c1)nc(O[C@@H]1C[C@H]3C(=O)N[C@]4(C(=O)NS(=O)(=O)N(C)C)C[C@H]4/C=C\CCCCC[C@H](NC(=O)OC(C)(C)C)C(=O)N3C1)n2C(C)C [Compound 289]	10 to 100	< 10
CC(C)c1cccc2nc(O[C@@H]3C[C@H]4C(=O)N[C@]5(C(=O)NS(=O)(=O)N(C)C)C[C@H]5/C=C\CCCCC[C@H](NC(=O)OC(C)(C)C)C(=O)N4C3)n(C(C)C)c12 [Compound 290]	10 to 100	< 10
CC(C)n1c(O[C@@H]2C[C@H]3C(=O)N[C@]4(C(=O)NS(=O)(=O)N(C)C)C[C@H]4/C=C\CCCCC[C@H](NC(=O)OC(C)(C)C)C(=O)N3C2)nc2c(C(F)(F)F)cccc21 [Compound 291]	< 10	< 10
CCc1csc(-c2cccc3c2nc(O[C@@H]2C[C@H]4C(=O)N[C@]5(C(=O)NS(=O)(=O)N(C)C)C[C@H]5/C=C\CCCCC[C@H](NC(=O)OC(C)(C)C)C(=O)N4C2)n3C(C)C)n1 [Compound 292]	< 10	< 10
CC(C)n1c(O[C@@H]2C[C@H]3C(=O)N[C@]4(C(=O)NS(=O)(=O)N(C)C)C[C@H]4/C=C\CCCCC[C@H](NC(=O)OC(C)(C)C)C(=O)N3C2)nc2c(-c3nc(C4CCCC4)cs3)cccc21 [Compound 293]	10 to 100	< 10
CC(C)(C)OC(=O)N[C@H]1CCCCC/C=C\[C@@H]2C[C@@]2(C(=O)NS(=O)(=O)C2(C)CC2)NC(=O)[C@@H]2C[C@@H](Oc3ccc4c(c3)ncn4-c3ccccc3)CN2C1=O [Compound 294]	> 100	< 10
Cn1cnc2cc(O[C@@H]3C[C@H]4C(=O)N[C@]5(C(=O)NS(=O)(=O)C6(C)CC6)C[C@H]5/C=C\CCCCC[C@H](NC(=O)OC(C)(C)C)C(=O)N4C3)ccc21 [Compound 295]	> 100	< 10
Cn1cnc2ccc(O[C@@H]3C[C@H]4C(=O)N[C@]5(C(=O)NS(=O)(=O)C6(C)CC6)C[C@H]5/C=C\CCCCC[C@H](NC(=O)OC(C)(C)C)C(=O)N4C3)cc21 [Compound 296]	> 100	< 10
CC(C)n1cnc2cc(O[C@@H]3C[C@H]4C(=O)N[C@]5(C(=O)NS(=O)(=O)C6(C)CC6)C[C@H]5/C=C\CCCCC[C@H](NC(=O)OC(C)(C)C)C(=O)N4C3)ccc21 [Compound 297]	> 100	< 10
CCn1cnc2ccc(O[C@@H]3C[C@H]4C(=O)N[C@]5(C(=O)NS(=O)(=O)C6(C)CC6)C[C@H]5/C=C\CCCCC[C@H](NC(=O)OC(C)(C)C)C(=O)N4C3)cc21 [Compound 298]	> 100	< 10
CC(C)(C)OC(=O)N[C@H]1CCCCC/C=C\[C@@H]2C[C@@]2(C(=O)NS(=O)(=O)C2(C)CC2)NC(=O)[C@@H]2C[C@@H](Oc3ccc4ncn(-c5ccccc5)c4c3)CN2C1=O [Compound 299]	10 to 100	< 10
CN(C)S(=O)(=O)NC(=O)[C@@]12C[C@H]1/C=C\CCCCC[C@H](NC(=O)OC(C)(C)C)C(=O)N1C[C@H](Oc3cnc4ccccc4n3)C[C@H]1C(=O)N2 [Compound 301]	10 to 100	< 10
CCc1nc2ccccc2nc1O[C@@H]1C[C@H]2C(=O)N[C@]3(C(=O)NS(=O)(=O)N(C)C)C[C@H]3/C=C\CCCCC[C@H](NC(=O)OC(C)(C)C)C(=O)N2C1 [Compound 302]	< 10	< 10
CN(C)S(=O)(=O)NC(=O)[C@@]12C[C@H]1/C=C\CCCCC[C@H](NC(=O)OC(C)(C)C)C(=O)N1C[C@H](Oc3nc4ccccc4nc3C(F)(F)F)C[C@H]1C(=O)N2 [Compound 303]	< 10	< 10
CN(C)S(=O)(=O)NC(=O)[C@@]12C[C@H]1/C=C\CCCCC[C@H](NC(=O)OC(C)(C)C)C(=O)N1C[C@H](Oc3nc4ccccc4nc3C(C)(C)C)C[C@H]1C(=O)N2 [Compound 304]	10 to 100	< 10
CC(C)c1nc2ccccc2nc1O[C@@H]1C[C@H]2C(=O)N[C@]3(C(=O)NS(=O)(=O)N(C)C)C[C@H]3/C=C\CCCCC[C@H](NC(=O)OC(C)(C)C)C(=O)N2C1 [Compound 305]	< 10	< 10
CN(C)S(=O)(=O)NC(=O)[C@@]12C[C@H]1/C=C\CCCCC[C@H](NC(=O)OC(C)(C)C)C(=O)N1C[C@H](Oc3nc4ccccc4nc3-c3ccccc3)C[C@H]1C(=O)N2 [Compound 306]	10 to 100	< 10
CC(C)Cc1nc2ccccc2nc1O[C@@H]1C[C@H]2C(=O)N[C@]3(C(=O)NS(=O)(=O)N(C)C)C[C@H]3/C=C\CCCCC[C@H](NC(=O)OC(C)(C)C)C(=O)N2C1 [Compound 307]	10 to 100	< 10
CN(C)S(=O)(=O)NC(=O)[C@@]12C[C@H]1/C=C\CCCCC[C@H](NC(=O)OC(C)(C)C)C(=O)N1C[C@H](Oc3nc4ccccc4nc3-c3ccc(F)cc3)C[C@H]1C(=O)N2 [Compound 308]	10 to 100	< 10

Compound	EC50 [1] [nM]	IC50 [2] [nM]
CCOC(=O)c1nc2ccccc2nc1O[C@@H]1C[C@H]2C(=O)N[C@]3(C(=O)NS(=O)(=O)N(C)C)C[C@H]3/C=C\CCCCC[C@H](NC(=O)OC(C)(C)C)C(=O)N2C1 [Compound 309]	10 to 100	< 10
Cc1nc2ccccc2nc1O[C@@H]1C[C@H]2C(=O)N[C@]3(C(=O)NS(=O)(=O)C4(C)CC4)C[C@H]3/C=C\CCCCC[C@H](Nc3ccccc3)C(=O)N2C1 [Compound 310]	10 to 100	< 10
CC(C)c1nc2ccccc2nc1O[C@@H]1C[C@H]2C(=O)N[C@]3(C(=O)NS(=O)(=O)C4(C)CC4)C[C@H]3/C=C\CCCCC[C@H](Nc3ccccc3)C(=O)N2C1 [Compound 311]	10 to 100	< 10
CCc1nc2ccccc2nc1O[C@@H]1C[C@H]2C(=O)N[C@]3(C(=O)NS(=O)(=O)C4(C)CC4)C[C@H]3/C=C\CCCCC[C@H](Nc3ccccc3)C(=O)N2C1 [Compound 312]	10 to 100	< 10
CC(C)n1c(O[C@@H]2C[C@H]3C(=O)N[C@]4(C(=O)NS(=O)(=O)C5(C)CC5)C[C@H]4/C=C\CCCCC[C@H](Nc4ccc(C(F)(F)F)cc4)C(=O)N3C2)nc2cncnc21 [Compound 501]	> 100	< 10
CC(C)n1c(O[C@@H]2C[C@H]3C(=O)N[C@]4(C(=O)NS(=O)(=O)C5(C)CC5)C[C@H]4/C=C\CCCCC[C@H](Nc4ccc(F)c(C(F)(F)F)c4)C(=O)N3C2)nc2cncnc21 [Compound 502]	10 to 100	< 10
CC(C)n1c(O[C@@H]2C[C@H]3C(=O)N[C@]4(C(=O)NS(=O)(=O)C5(C)CC5)C[C@H]4/C=C\CCCCC[C@H](Nc4cc(F)cc(C(F)(F)F)c4)C(=O)N3C2)nc2cncnc21 [Compound 503]	10 to 100	< 10
CC(C)n1c(O[C@@H]2C[C@H]3C(=O)N[C@]4(C(=O)NS(=O)(=O)C5CC5)C[C@H]4/C=C\CCCCC[C@H](NC(=O)OC(C)(C)C)C(=O)N3C2)nc2cncnc21 [Compound 504]	10 to 100	< 10
CC(C)n1cnc2cnc(O[C@@H]3C[C@H]4C(=O)N[C@]5(C(=O)NS(=O)(=O)C6CC6)C[C@H]5/C=C\CCCCC[C@H](NC(=O)OC(C)(C)C)C(=O)N4C3)nc21 [Compound 505]	> 100	< 10
CC(C)(C)OC(=O)N[C@H]1CCCCC/C=C\[C@@H]2C[C@@]2(C(=O)NS(=O)(=O)C2CC2)NC(=O)[C@@H]2C[C@@H](Oc3ncc4ncn(Cc5ccccc5)c4n3)CN2C1=O [Compound 506]	> 100	< 10
CN(C)S(=O)(=O)NC(=O)[C@@]12C[C@H]1/C=C\CCCCC[C@H](NC(=O)OC(C)(C)C)C(=O)N1C[C@H](Oc3ccc4c(ccn4C)c3)C[C@H]1C(=O)N2 [Compound 701]	> 100	< 10
Cn1ccc2ccc(O[C@@H]3C[C@H]4C(=O)N[C@]5(C(=O)NS(=O)(=O)C6(C)CC6)C[C@H]5/C=C\CCCCC[C@H](NC(=O)OC(C)(C)C)C(=O)N4C3)cc21 [Compound 702]	10 to 100	< 10
CC(C)(C)OC(=O)N[C@H]1CCCCC/C=C\[C@@H]2C[C@@]2(C(=O)NS(=O)(=O)C2(C)CC2)NC(=O)[C@@H]2C[C@@H](n3nnc(-c4ccccc4)n3)CN2C1=O [Compound 801]	10 to 100	< 10
CC1(S(=O)(=O)NC(=O)[C@@]23C[C@H]2/C=C\CCCCC[C@H](Nc2ccccc2)C(=O)N2C[C@H](n4nnc(-c5ccccc5)n4)C[C@H]2C(=O)N3)CC1 [Compound 802]	> 100	< 10
COc1ccc(-c2nnn([C@@H]3C[C@H]4C(=O)N[C@]5(C(=O)NS(=O)(=O)C6(C)CC6)C[C@H]5/C=C\CCCCC[C@H](NC(=O)OC(C)(C)C)C(=O)N4C3)n2)cc1 [Compound 803]	10 to 100	< 10
COc1ccc(-c2nnn([C@@H]3C[C@H]4C(=O)N[C@]5(C(=O)NS(=O)(=O)C6(C)CC6)C[C@H]5/C=C\CCCCC[C@H](Nc5ccccc5)C(=O)N4C3)n2)cc1 [Compound 804]	10 to 100	< 10
CC1(S(=O)(=O)NC(=O)[C@@]23C[C@H]2/C=C\CCCCC[C@H](Nc2ccccc2)C(=O)N2C[C@H](n4nnc(-c5cccc(-c6nccs6)c5)n4)C[C@H]2C(=O)N3)CC1 [Compound 805]	> 100	< 10
COc1ccc2c(O[C@@H]3C[C@H]4C(=O)N[C@]5(C(=O)NS(=O)(=O)C6(C)CC6)C[C@H]5/C=C\CCCCC[C@H](Nc5cccc(F)c5)C(=O)N4C3)nc(-c3nc(C(C)C)cs3)nc2c1C [Compound 901]	< 10	< 10
COc1ccc2c(O[C@@H]3C[C@H]4C(=O)N[C@]5(C(=O)NS(=O)(=O)C6(C)CC6)C[C@H]5/C=C\CCCCC[C@H](Nc5ccc(F)c(F)c5)C(=O)N4C3)cc(-c3nc(C(C)C)cs3)nc2c1C [Compound 1001]	< 10	< 10
